What all share (experiment): AK assay 384-well format, Prestwick library screening
For one assay, the system named is K. pneumoniae. In kind it is cell-based, Klebsiella pneumoniae. The note with it: 50 μM final drug concentration; for fold induction at 50 µM: Klebsiella pneumoniae, 3 h, read-out: AK-based Prestwick Library Screening Results, K. pneumoniae (fold increase in extracellular AK activity).
Assay [1] has as its system S. aureus strain USA300-0114. In kind it is cell-based, Staphylococcus aureus. The note with it: 50 μM final drug concentration; for fold induction at 50 µM: Staphylococcus aureus, USA300, 3 h, read-out: AK-based Prestwick Library Screening Results, S. aureus (fold increase in extracellular AK activity).
The subject of a further assay is E. faecium. In kind it is cell-based, Enterococcus faecium. The note with it: 50 μM final drug concentration; for fold induction at 50 µM: Enterococcus faecium, 3 h, read-out: AK-based Prestwick Library Screening Results, E. faecium (fold increase in extracellular AK activity).
The test system of the next assay is E. coli. Format: cell-based, Escherichia coli. The settings on record: for fold induction at 50 µM: Escherichia coli, 3 h, read-out: AK-based Prestwick Library Screening Results, E. coli (fold increase in extracellular AK activity).
The subject of a further assay is E. cloacae. In kind it is cell-based, Enterobacter cloacae. The note with it: 50 μM final drug concentration; for fold induction at 50 µM: Enterobacter cloacae, 3 h, read-out: AK-based Prestwick Library Screening Results, E. cloacae (fold increase in extracellular AK activity).
The test system of assay [2] is A. baumannii strain 98-37-09. Format: cell-based, Acinetobacter baumannii. The settings on record: 50 μM final drug concentration; for fold induction at 50 µM: Acinetobacter baumannii, 983709, 3 h, read-out: AK-based Prestwick Library Screening Results, A. baumannii (fold increase in extracellular AK activity).
For another assay, the system named is P. aeruginosa. In kind it is cell-based, Pseudomonas aeruginosa. The settings on record: 50 μM final drug concentration; for fold induction at 50 µM: Pseudomonas aeruginosa, 3 h, read-out: AK-based Prestwick Library Screening Results, P. aeruginosa (fold increase in extracellular AK activity).
The mark [3] stands for this setting: planktonic, cutoff for positive-scoring molecules 3-fold increase.
Setting [4] is: cutoff for positive-scoring molecules 3-fold increase.
Where [5] appears, read: 50 μM final drug concentration, cutoff for positive-scoring molecules 3-fold increase.
The mark [6] stands for this setting: planktonic, cutoff for positive 3-fold increase.
[7] abbreviates: 50 μM final drug concentration, planktonic, cutoff for positive 3-fold increase.

Structures can show the parent of a compound that is named as a salt. Where two headings read alike, the source gives them in different places.

In the case of `C[N+]1(C)C[C@H](O)C[C@H]1C(=O)[O-]` [Betonicine], the fold induction at 50 µM with K. pneumoniae (setting [3]) worked out at 0.6; in assay [1] (setting [3]), 0.4; in the assay on E. faecium (setting [3]), 0.9; in the assay with E. coli (50 μM final drug concentration, planktonic, cutoff for positive-scoring molecules 3-fold increase), 0.4; in the assay with E. cloacae (setting [3]), 0.4; in assay [2] (setting [3]), 0.4. In the assay with P. aeruginosa (setting [3]), the fold induction at 50 µM amounted to 0.4.

As to `C#C[C@]1(O)CC[C@H]2[C@@H]3CCC4=CC(=O)CC[C@@H]4[C@H]3CC[C@@]21CC` [Norgestrel-(−)-D], the “AK-based Prestwick Library Screening Results, K. pneumoniae (fold increase in extracellular AK activity)” value in the assay with K. pneumoniae (setting [4]) turned out to be 1.1. For the same compound, the “AK-based Prestwick Library Screening Results, S. aureus (fold increase in extracellular AK activity)” value in assay [1] (setting [4]) came out at 1.1. Moreover, the “AK-based Prestwick Library Screening Results, E. faecium (fold increase in extracellular AK activity)” value in the assay on E. faecium (setting [4]) was 1.0. In addition, in the assay with E. coli (setting [5]), the “AK-based Prestwick Library Screening Results, E. coli (fold increase in extracellular AK activity)” value is 1.0. For the same compound, the “AK-based Prestwick Library Screening Results, E. cloacae (fold increase in extracellular AK activity)” value in the assay with E. cloacae (setting [4]) is 1.7. In addition, in assay [2] (setting [4]), the “AK-based Prestwick Library Screening Results, A. baumannii (fold increase in extracellular AK activity)” value worked out at 1.1. Besides, the “AK-based Prestwick Library Screening Results, P. aeruginosa (fold increase in extracellular AK activity)” value in the assay with P. aeruginosa (setting [4]) was 1.1.

`Cc1nc2ccccn2c(=O)c1CCN1CCC(C(=O)c2ccc(F)cc2)CC1` [Pirenperone]: the fold induction at 50 µM with K. pneumoniae (setting [6]) was found to be 1; in assay [1] (setting [6]), 1.1; in the assay with E. faecium (setting [6]) it was 1.1; with E. coli (setting [7]) it was 1.1; in the assay with E. cloacae (setting [6]), 1.5; in assay [2] (setting [6]), 1.2. Further, the fold induction at 50 µM in the assay on P. aeruginosa (setting [6]) is 1.2.

For `C/C=C(/C(=C/C)c1ccc(O)cc1)c1ccc(O)cc1` [Dienestrol], the fold induction at 50 µM was 0.9 in the assay on K. pneumoniae (setting [4]); 0.4 in assay [1] (setting [4]); 1.3 with E. faecium (setting [4]); 1.1 with E. coli (setting [5]); 21.9 in the assay on E. cloacae (setting [4]); 3.2 in assay [2] (setting [4]). For the same compound, the fold induction at 50 µM in the assay with P. aeruginosa (setting [4]) is 1.1.

Turning to `Cc1ncc(C[n+]2csc(CCO)c2C)c(N)n1` [Thiamine hydrochloride], the fold induction at 50 µM with K. pneumoniae (setting [6]) was 1.4; in assay [1] (setting [6]), 1.1; with E. faecium (setting [6]) it was 1; in the assay with E. coli (setting [7]) it was 1.4; with E. cloacae (setting [6]), 1.3; in assay [2] (setting [6]), 1.3. In the assay on P. aeruginosa (setting [6]), the fold induction at 50 µM worked out at 1.3.

On to `O=c1cc(-c2ccc(O)cc2)oc2c([C@@H]3O[C@H](CO)[C@@H](O)[C@H](O)[C@H]3O)c(O)cc(O)c12` [Vitexin], for which the fold induction at 50 µM in the assay on K. pneumoniae (setting [3]) worked out at 0.8; in assay [1] (setting [3]), 0.7; in the assay with E. faecium (setting [3]), 1; in the assay on E. coli (50 μM final drug concentration, planktonic, […]), 0.8; in the assay with E. cloacae (setting [3]), 0.8; in assay [2] (setting [3]) it was 0.7. The fold induction at 50 µM in the assay on P. aeruginosa (setting [3]) was determined as 0.8.

Regarding `N[C@@H](Cc1cc(I)c(Oc2ccc(O)c(I)c2)c(I)c1)C(=O)O` [Liothyronine], the fold induction at 50 µM in the assay on K. pneumoniae (setting [4]) turned out to be 0.9; in assay [1] (setting [4]), 1; in the assay on E. faecium (setting [4]), 1.1; in the assay with E. coli it was 1.2; in the assay on E. cloacae (setting [4]) it was 1.6; in assay [2] (setting [4]) it was 1.1. In the assay on P. aeruginosa (setting [4]), the fold induction at 50 µM is 1.1.

The values are drawn from patent US10004701B2, “Methods and compositions for treating infection” (UNIVERSITY OF ROCHESTER, priority 2012, dated 2018).
